Assay results taken from patent US20070049599A1, “Use of bh4 for the treatment of respiratory diseases” (Altana Pharma AG, priority 2003, published 2007).

Assays:
human iNOS [1] = target: T1, human iNOS (Homo sapiens, UniProt P35228); test: Superoxide production from recombinant BH4-free and arginine-free human iNOS (ESR, CPH spin trap); type: biochemical; design: made in house; host or cells: E. coli; settings: incubation with arginine alone, FIG. 3b
Experimental: Recombinant human iNOS was overexpressed in E. coli and purified using an ADP sepharose column and subsequently a Superdex column to yield BH4free and arginine-free iNOS. 1 μg of human iNOS was incubated together with 200 μM NADPH and 1 mM CPH. After incubation at 37° C. for 60 min the superoxide produced was measured as stable CPH radical in a Bruker e-scan device via electron spin resonance spectroscopy (ESR).

[2] = system: EA.hy926 endothelial cells; test: Conversion of BH4 derivatives into BH4 by endothelial cells (intracellular biopterin content by HPLC); type: cell-based; settings: 100 μM, FIG. 1
Experimental: Endothelial cells (HUVEC and ERhy926) were cultivated in the appropriate culture medium and treated with sepiapterin and BH4 (100 μM each) respectively, for the indicated time periods. After excess wash steps using PBS the cells were lysed and the biopterin content was analysed by reversed phase HPLC with fluorescence detection (excitation: 350 nm, emission: 450 nm) after iodine reduction and semi-purification on Dowex beads as described in detail in Hesslinger et al., J. Biol. Chem. 273, 21616-21622, 1998.

human iNOS [3] = target: T1, human iNOS; test: Promotion of NO synthesis in DAHP-pretreated HEK293iNOS cells (Griess assay); type: cell-based; settings: HEK293iNOS cells pretreated with 10 mM DAHP, increasing concentrations, concentration-dependent, FIG. 2
Experimental: HEK293 cells stably transfected with human iNOS under the transcriptional control of a PonA-inducible promoter were treated with 10 mM DAHP (diaminohydroxypyridin), an inhibitor of GTP cyclohydrolase (Xie et al., J. Biol. Chem. 273, 21091-21098, 1998), to block endogenous production of tetrahydrobiopterin. After stimulating iNOS expression with […] PonA for 24 h and concomitant treatment with 10 mM DAHP increasing concentrations of BH4 or sepiapterin were added and the NO production was measured using the Griess assay to analyse the stable NO products nitrite and nitrate. Nitrate was reduced to nitrite by nitrate reductase and its absorption was determined at 544 nm in a Wallac spectrophotometer.

NO synthesis from iNOS (nitrite/nitrate, Griess assay) (human iNOS [3]) | Structure (SMILES) | reduction of superoxide production (human iNOS [1]) [%] | conversion of exogenous compound into intracellular biopterin [2]
– | N=C(N)NCCC[C@H](N)C(=O)O [arginine] | 50 | –
promoted NO synthesis | C[C@H](O)C(=O)C1=Nc2c(nc(N)[nH]c2=O)NC1 [sepiapterin] | – | effectively converted into intracellular biopterin within a few minutes
